The results in this text go back to US20230117034A1, “PYRAZOLOTRIAZINES” (Bayer Aktiengesellschaft, priority 2019, published 2023).

The target in test [1] is CDK12/CycK (Homo sapiens, UniProt Q9NYV4). Nature of the test: CDK12/CycK high ATP kinase assay (TR-FRET, 2 mM ATP). It counts as biochemical. Conditions: 2 mM ATP (high ATP); median; read-out: CDK12/CyclinK, 2 mM ATP (high ATP), IC50-[mol/l] (median). As for the experimental part:
In the context of the present invention, the term “IC50 CDK12 hATP” refers to the IC50 values obtained according to the assay described in this section (2.2) herein below, i.e. the IC50 values for the inhibition of CDK12 at high (2 mM) ATP.
CDK12/CycK-inhibitory activity of compounds of the present invention at 2 millimol/L adenosine-tri-phosphate (ATP) was quantified employing the TR-FRET (TR-FRET=Time Resolved Fluorescence Energy Transfer) based CDK12/CycK activity inhibition assay as described in the following paragraphs.
A complex of human recombinant CDK12 and human recombinant CycK (both N-terminally His-tagged, expression and purification as described above) was used as enzyme. As substrate for the kinase reaction biotinylated peptide biotin-Ahx-KFELLPTPPLSPSRRSGL (C-terminus in amid form) was used which can be purchased e.g. form the company Biosyntan (Berlin-Buch, Germany).
For the assay 50 nanoL of a 100 fold concentrated solution of the test compound in DMSO was pipetted into either a black low volume 384 well microtiter plate or a black 1536 well microtiter plate (both Greiner Bio-One, Frickenhausen, Germany), 2 microL of a solution of CDK12/CycK in aqueous assay buffer [25 millimol/L HEPES pH 7.5, 20 millimol/L MgCl2, 5 millimol/L β-glycerophosphate, 2 millimol/L EGTA, 1.0 millimol/L dithiothreitol, 0.01% (v/v) Nonidet-P40 (Sigma), 0.01% (w/v) bovine serum albumin] were added and the mixture was incubated for 15 min at 22° C. to allow pre-binding of the test compounds to the enzyme before the start of the kinase reaction. Then the kinase reaction was started by the addition of 3 microL of a solution ATP (3.33 millimol/L=>final conc. in the 5 microL assay volume is 2 millimol/L) and substrate (1.67 micromol/L=>final conc. in the 5 microL assay volume is 1 micromol/L) in assay buffer and the resulting mixture was incubated for a reaction time of 60 min at 22° C. The concentration of CDK12/CycK was adjusted depending of the activity of the enzyme lot and was chosen appropriate to have the assay in the linear range, typical concentrations were about 0.75 nanomol/L. The reaction was stopped by the addition of 3 microL of a solution of TR-FRET detection reagents (125 nanomol/L streptavidine-XL665 [Cisbio Bioassays, Codolet, France] and 0.67 nanomol/L anti-Phospho-c-Myc (Ser 62) (E1J4K)-antibody from Cell Signalling [#13748] and 2 nanomol/L LANCE EU-W1024 labeled anti-rabbit IgG antibody [Perkin-Elmer, product no. 0083]) in an aqueous EDTA-solution (133 millimol/L EDTA, 0.27% (w/v) bovine serum albumin in 66.7 millimol/L HEPES pH 7.5).
The resulting mixture was incubated 1 h at 22° C. to allow the formation of complex between the phosphorylated biotinylated peptide and the detection reagents. Subsequently the amount of phosphorylated substrate was evaluated by measurement of the resonance energy transfer from the Eu-chelate to the streptavidine-XL. Therefore, the fluorescence emissions at 620 nm and 665 nm after excitation at 350 nm was measured in a TR-FRET reader, e.g. a Pherastar FS (BMG Labtechnologies, Offenburg, Germany) or a Viewlux (Perkin-Elmer). The ratio of the emissions at 665 nm and at […] was taken as the measure for the amount of phosphorylated substrate. The data were normalised (enzyme reaction without inhibitor=0% inhibition, all other assay components but no enzyme=100% inhibition).

Test [2] concerns the target T1, CYCLIN K (nuclear staining in CAL-120 cells) (Homo sapiens, UniProt O75909).
T1 construct: endogenous in cells; host or cells: CAL-120 human breast cancer cells (DSMZ ACC 459)
Nature of the test: CYCLIN K nuclear protein level: immunofluorescence high content analysis (CAL-120). It counts as cell-based. The settings on record: 24 h, 50% reduction of nuclear CCNK staining intensity, median, read-out: CYCLIN K degradation IF, DC50-[mol/l] (median). As to the method: 8. CYCLIN K nuclear protein level: immunofluorescence High Content Analysis
CAL-120 human breast cancer cells (DSMZ ACC 459) are seeded in 1536-well microtiter plates (800 cells per well) containing 50 nanoL of compounds in Dose-Response. Control wells received DMSO or Example 4. Plates are then incubated for 24 h at 37° C. in an humidified incubator and fixed with 4% PFA for 10 min. Then immunofluorescence (IF) against CYCLIN K (ThermoFisher Scientific CONK Antibody #PA5-85020, rabbit, 1:200 dilution) is performed using standard IF protocols. Cells are then stained with Hoechst 33342 (Life Technologies, H-1399, 0.1 microg/ml) and imaged on an automated confocal microscopy system (e.g. Perkin Elmer Opera Phenix). Nuclear and cytoplasmic intensity as well as the nuclear/cytoplasmic intensity ratio is determined by automated image analysis using custom generated scripts (MetaXpress). Data is then transferred to Genedata Screener software, normalized to DMSO and control and DC50 values (degrading concentration to achieve 50% reduction of nuclear CCNK staining intensity relative to controls) are reported.

The subject of test [3] is CAL-120, human breast adenocarcinoma cells. Nature of the test: Proliferation assay CAL-120 (crystal violet, 4 days). It is filed as cell-based. Conditions: Homo sapiens, CAL-120, 96 h, CAL-120 cells, median, read-out: Prolif-CAL-120, IC50-[mol/l] (median). As to the method: Human tumour cells were originally obtained from the American Type Culture Collection (ATCC), or from the Deutsche Sammlung von Mikroorganismen und Zellkulturen (DSMZ, German Collection of Microorganisms and Cell Cultures). Cultivated tumour cells (CAL-120, human breast adenocarcinoma cells, DSMZ ACC-459; MDA-MB-231, human breast cancer cells, ATCC HTB-26) were plated at a density of 4,000 cells/well in a 96-well multititer plate in 200 microL of their respective growth medium supplemented 10% fetal calf serum. After 24 hours, the cells of one plate (zero-point plate) were stained with crystal violet (see below), while the medium of the other plates was supplemented with the test substances in various concentrations (0 micromol/L, as well as in the range of 0.01-10 micromol/L; the final concentration of the solvent dimethyl sulfoxide was adjusted to 0.1%) using a Tecan HP D300 Digital Dispenser. The cells were incubated for 4 days in the presence of test substances. Cell proliferation was determined by staining the cells with crystal violet: the cells were fixed by adding 20 microL/measuring point of an 11% glutaric aldehyde solution for 15 minutes at room temperature. After three washing cycles of the fixed cells with water, the plates were dried at room temperature. The cells were stained by adding 100 microL/measuring point of a 0.1% crystal violet solution (pH 3.0). After three washing cycles of the stained cells with water, the plates were dried at room temperature. The dye was dissolved by adding 100 microL/measuring point of a 10% acetic acid solution. The extinction was determined by photometry at a wavelength of 595 nm. The change of cell number, in percent, was calculated by normalization of the measured values to the extinction values of the zero-point plate (=0%) and the extinction of the untreated (0 μM) cells (=100%). The IC50 values (inhibitory concentration at 50% of maximal effect) were determined by means of a 4 parameter fit.

Each structure is given as a SMILES string. Some results are limits rather than exact numbers.

Sequence of CDK12/CycK (Q9NYV4 with tags, fused parts or gaps): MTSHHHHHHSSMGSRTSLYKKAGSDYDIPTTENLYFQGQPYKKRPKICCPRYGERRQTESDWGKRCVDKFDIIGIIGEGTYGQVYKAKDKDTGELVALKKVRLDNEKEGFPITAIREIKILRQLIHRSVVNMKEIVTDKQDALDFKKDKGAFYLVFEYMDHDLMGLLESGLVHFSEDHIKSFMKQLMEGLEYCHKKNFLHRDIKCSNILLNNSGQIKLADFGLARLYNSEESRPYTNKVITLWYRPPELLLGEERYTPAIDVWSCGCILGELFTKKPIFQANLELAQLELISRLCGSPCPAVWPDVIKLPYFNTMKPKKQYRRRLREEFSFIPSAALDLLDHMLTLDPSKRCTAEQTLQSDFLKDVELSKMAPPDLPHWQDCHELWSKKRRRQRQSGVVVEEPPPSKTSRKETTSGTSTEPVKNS
Sequence of CDK12/CycK (O75909 1-300 partner limits assumed): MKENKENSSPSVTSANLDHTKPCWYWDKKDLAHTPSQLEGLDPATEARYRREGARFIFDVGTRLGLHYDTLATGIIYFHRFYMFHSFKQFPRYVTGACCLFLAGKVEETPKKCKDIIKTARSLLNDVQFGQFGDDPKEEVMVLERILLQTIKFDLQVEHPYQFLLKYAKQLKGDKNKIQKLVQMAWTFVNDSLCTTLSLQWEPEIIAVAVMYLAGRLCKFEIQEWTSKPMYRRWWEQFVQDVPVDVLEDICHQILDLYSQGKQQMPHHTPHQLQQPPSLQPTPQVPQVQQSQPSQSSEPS
T1 sequence (O75909 whole entry): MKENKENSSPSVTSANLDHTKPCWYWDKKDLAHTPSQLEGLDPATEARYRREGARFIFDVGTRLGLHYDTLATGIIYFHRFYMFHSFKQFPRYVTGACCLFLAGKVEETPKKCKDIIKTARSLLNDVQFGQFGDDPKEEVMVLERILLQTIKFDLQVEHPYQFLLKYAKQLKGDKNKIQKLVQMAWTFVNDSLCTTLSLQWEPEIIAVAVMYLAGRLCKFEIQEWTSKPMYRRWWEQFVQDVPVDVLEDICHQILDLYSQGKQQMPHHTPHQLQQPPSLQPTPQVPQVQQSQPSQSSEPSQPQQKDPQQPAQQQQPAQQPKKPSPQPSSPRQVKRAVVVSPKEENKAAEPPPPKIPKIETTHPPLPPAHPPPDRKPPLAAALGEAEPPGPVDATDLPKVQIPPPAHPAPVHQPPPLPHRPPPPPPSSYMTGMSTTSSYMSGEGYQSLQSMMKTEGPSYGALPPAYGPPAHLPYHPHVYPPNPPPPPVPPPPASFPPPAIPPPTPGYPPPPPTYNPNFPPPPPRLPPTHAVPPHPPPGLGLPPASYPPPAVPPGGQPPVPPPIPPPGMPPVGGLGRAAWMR
T1 sequence (Q9NYV4 whole entry partner): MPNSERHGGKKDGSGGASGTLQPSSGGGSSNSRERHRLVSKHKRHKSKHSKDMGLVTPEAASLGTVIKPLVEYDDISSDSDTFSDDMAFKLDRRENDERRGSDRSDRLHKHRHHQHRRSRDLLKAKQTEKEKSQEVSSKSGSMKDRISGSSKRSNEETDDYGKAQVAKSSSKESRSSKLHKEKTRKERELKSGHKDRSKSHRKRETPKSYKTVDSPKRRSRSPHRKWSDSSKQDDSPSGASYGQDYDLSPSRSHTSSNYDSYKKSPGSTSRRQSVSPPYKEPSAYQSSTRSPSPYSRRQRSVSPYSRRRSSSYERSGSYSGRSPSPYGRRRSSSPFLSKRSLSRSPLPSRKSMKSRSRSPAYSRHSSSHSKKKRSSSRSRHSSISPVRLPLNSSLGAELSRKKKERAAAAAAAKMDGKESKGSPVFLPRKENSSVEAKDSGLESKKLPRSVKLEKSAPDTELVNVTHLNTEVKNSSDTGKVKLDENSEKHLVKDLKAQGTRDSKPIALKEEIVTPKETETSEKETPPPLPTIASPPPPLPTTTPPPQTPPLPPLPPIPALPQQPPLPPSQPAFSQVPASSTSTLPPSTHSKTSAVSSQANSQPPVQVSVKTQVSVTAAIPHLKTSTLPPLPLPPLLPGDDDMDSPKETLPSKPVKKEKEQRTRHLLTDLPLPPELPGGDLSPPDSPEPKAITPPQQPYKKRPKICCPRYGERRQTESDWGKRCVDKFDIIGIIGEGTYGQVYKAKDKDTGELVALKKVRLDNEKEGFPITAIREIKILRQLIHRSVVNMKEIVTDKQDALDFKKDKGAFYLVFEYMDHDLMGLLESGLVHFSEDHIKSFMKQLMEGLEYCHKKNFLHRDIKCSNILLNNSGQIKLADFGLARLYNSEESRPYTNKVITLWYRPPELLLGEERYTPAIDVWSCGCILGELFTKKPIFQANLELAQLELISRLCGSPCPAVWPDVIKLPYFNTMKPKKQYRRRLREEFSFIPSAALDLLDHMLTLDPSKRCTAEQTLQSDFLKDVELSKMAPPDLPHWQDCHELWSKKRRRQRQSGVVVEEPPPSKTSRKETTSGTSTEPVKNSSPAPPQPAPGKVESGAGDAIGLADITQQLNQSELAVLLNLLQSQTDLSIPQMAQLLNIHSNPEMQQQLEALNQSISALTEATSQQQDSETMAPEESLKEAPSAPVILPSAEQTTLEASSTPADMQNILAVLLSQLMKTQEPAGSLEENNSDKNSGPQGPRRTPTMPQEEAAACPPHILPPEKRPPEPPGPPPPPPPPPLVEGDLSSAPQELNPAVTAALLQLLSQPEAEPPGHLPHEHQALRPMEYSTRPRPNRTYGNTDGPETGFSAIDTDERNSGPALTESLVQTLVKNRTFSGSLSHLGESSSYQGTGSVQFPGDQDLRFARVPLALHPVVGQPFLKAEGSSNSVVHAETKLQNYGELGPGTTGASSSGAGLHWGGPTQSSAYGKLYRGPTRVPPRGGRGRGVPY

Take `C[C@@H]1CN(c2nc(NCc3nnc(-c4ccccc4)[nH]3)n3ncc(Br)c3n2)C[C@H](C)N1C` [Example 125, 8-bromo-N-[(5-phenyl-4H-1,2,4-triazol-3-yl)methyl]-2-[(3R,5S)-3,4,5-trimethylpiperazin-1-yl]pyrazolo[1,5-a][1,3,5]triazin-4-amine]: the IC50 in test [1] stood at 10.9 µM; in test [3], 53.1 nM. For the same compound, the DC50 in test [2] came out at 1.2 nM.
Regarding `Brc1cnn2c(NCc3nc4ccccc4[nH]3)nc(N3CCOCC3C3CC3)nc12` (stereo not drawn) [Example 117, N-(1H-benzimidazol-2-ylmethyl)-8-bromo-2-(3-cyclopropylmorpholin-4-yl)pyrazolo[1,5-a][1,3,5]triazin-4-amine], the IC50 in test [1] turned out to be 4.82 µM; in test [3], 23.1 nM. Further, the DC50 in test [2] was found to be 2.62 nM.
Turning to `Brc1cnn2c(NCc3nc4ccccc4[nH]3)nc(N3C[C@@H]4CCCN[C@@H]4C3)nc12` [Example 146, N-[(1H-benzimidazol-2-yl)methyl]-8-bromo-2-[(4aS,7aS)-octahydro-6H-pyrrolo[3,4-b]pyridin-6-yl]pyrazolo[1,5-a][1,3,5]triazin-4-amine], the IC50 came to 8.86 µM in test [1] and 31 nM in test [3]. In addition, in test [2], the DC50 turned out to be 0.56 nM.
For `Brc1cnn2c(NCc3nnc(-c4ccccc4)[nH]3)nc(N3C[C@@H]4C[C@H]3CO4)nc12` [Example 120, 8-bromo-2-[(1S,4S)-2-oxa-5-azabicyclo[2.2.1]heptan-5-yl]-N-[(5-phenyl-4H-1,2,4-triazol-3-yl)methyl]pyrazolo[1,5-a][1,3,5]triazin-4-amine], in that order: 13.2 µM, 25.4 nM and 2.19 nM.
For `C[C@H]1CN(c2nc(NCc3nnc(-c4ccccc4)[nH]3)n3ncc(Br)c3n2)CCN1C.O=CO` [Example 122, 8-bromo-2-[(3S)-3,4-dimethylpiperazin-1-yl]-N-[(5-phenyl-4H-1,2,4-triazol-3-yl)methyl]pyrazolo[1,5-a][1,3,5]triazin-4-amine formate], in that order: more than 20 µM, 18.5 nM and 0.735 nM.
On the same counts, the results for `Brc1cnn2c(NCc3nc4ccccc4[nH]3)nc(N3CCNCC3)nc12` [Example 128, N-[(1H-benzimidazol-2-yl)methyl]-8-bromo-2-(piperazin-1-yl)pyrazolo[1,5-a][1,3,5]triazin-4-amine] are 10.9 µM, 12.7 nM and 0.216 nM.
As for `c1ccc2[nH]c(CNc3nc(N4CCOCC4)nc4c(-c5ccncc5)cnn34)nc2c1` [Example 111, N-[(1H-benzimidazol-2-yl)methyl]-2-(morpholin-4-yl)-8-(pyridin-4-yl)pyrazolo[1,5-a][1,3,5]triazin-4-amine hydrogen chloride (1/1)], the IC50 was more than 1.63 µM in test [1] and 8.96 nM in test [3]. The DC50 in test [2] was determined as 1 nM.
As to `CC1CN(C)CCN1c1nc(NCc2nc3ccccc3[nH]2)n2ncc(Br)c2n1` (stereo not drawn) [Example 156, N-(1H-benzimidazol-2-ylmethyl)-8-bromo-2-(2,4-dimethylpiperazin-1-yl)pyrazolo[1,5-a][1,3,5]triazin-4-amine], the IC50 in test [1] stood at 9.4 µM; in test [3], 5.45 nM. The DC50 in test [2] worked out at 0.249 nM.
In the case of `Fc1cc(-c2nnc(CNc3nc(N4CCOCC4)nc4c(Br)cnn34)[nH]2)cc(F)c1F` [Example 100, 8-bromo-2-(morpholin-4-yl)-N-{[5-(3,4,5-trifluorophenyl)-4H-1,2,4-triazol-3-yl]methyl}pyrazolo[1,5-a][1,3,5]triazin-4-amine], the IC50 stood at 1.24 µM in test [1] and 60.2 nM in test [3]. Also, the DC50 in test [2] worked out at 7.4 nM.
On the same counts, the results for `C[C@H]1CCCCN1c1nc(NCc2nc3ccccc3[nH]2)n2ncc(Br)c2n1` [Example 141, N-[(1H-benzimidazol-2-yl)methyl]-8-bromo-2-[(2S)-2-methylpiperidin-1-yl]pyrazolo[1,5-a][1,3,5]triazin-4-amine] are 1.31 µM, 24.5 nM and 1.74 nM.
On the same counts, the results for `CN1CCN(c2nc(NCc3nc4cc(F)ccc4[nH]3)n3ncc(C4CC4)c3n2)CC1` [Example 164, 8-cyclopropyl-N-[(5-fluoro-1H-benzimidazol-2-yl)methyl]-2-(4-methylpiperazin-1-yl)pyrazolo[1,5-a][1,3,5]triazin-4-amine] are more than 20 µM, 4.13 nM and 1.12 nM.
For `C[C@@H]1CN(c2nc(NCc3nc4ccccc4[nH]3)n3ncc(Br)c3n2)C[C@H](C)N1` [Example 142, N-(1H-benzimidazol-2-ylmethyl)-8-bromo-2-[(3R,5S)-3,5-dimethylpiperazin-1-yl]pyrazolo[1,5-a][1,3,5]triazin-4-amine], in that order: 10.8 µM, 11.3 nM and 0.163 nM.
As to `C[C@@H]1CN(c2nc(NCc3nc4c(F)cccc4[nH]3)n3ncc(Br)c3n2)C[C@H](C)O1` [Example 109, 8-bromo-2-[(2R,6S)-2,6-dimethylmorpholin-4-yl]-N-[(4-fluoro-1H-benzimidazol-2-yl)methyl]pyrazolo[1,5-a][1,3,5]triazin-4-amine], the IC50 was determined as 0.176 µM in test [1] and 4.9 nM in test [3]. In addition, the DC50 in test [2] came to 0.115 nM.
